Experimental data from PubChem BioAssay (NCI).
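GI50: concentration for 50% inhibition of growth. TGI marks complete inhibition of growth.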

Key:
Experiment in all cases: growth of human tumour cells (NCI), 384-well format
SF-268 CNS = system: SF-268 CNS
U251 glioblastoma = system: U251 glioblastoma
OVCAR-8 ovarian = system: OVCAR-8 ovarian
SW-620 colon = system: SW-620 colon
CCRF-CEM leukemia = system: CCRF-CEM leukemia
786-0 renal = system: 786-0 renal
UACC-257 melanoma = system: UACC-257 melanoma
SK-MEL-2 melanoma = system: SK-MEL-2 melanoma
BT-549 breast = system: BT-549 breast
MOLT-4 leukemia = system: MOLT-4 leukemia
UO-31 renal = system: UO-31 renal
COLO 205 colon = system: COLO 205 colon
NCI-H522 lung = system: NCI-H522 lung
SN12C renal = system: SN12C renal
MDA-MB-435 melanoma = system: MDA-MB-435 melanoma
HOP-62 NSCLC = system: HOP-62 NSCLC
NCI-H226 lung = system: NCI-H226 lung
PC-3 prostate = system: PC-3 prostate
SNB-19 CNS = system: SNB-19 CNS
HCC-2998 colon = system: HCC-2998 colon
A498 renal = system: A498 renal
TK-10 renal = system: TK-10 renal
MDA-MB-231 breast = system: MDA-MB-231 breast
HCT-116 colon = system: HCT-116 colon
HCT-15 colon = system: HCT-15 colon
SK-MEL-5 melanoma = system: SK-MEL-5 melanoma
T-47D breast = system: T-47D breast
MALME-3M melanoma = system: MALME-3M melanoma
NCI-H23 lung = system: NCI-H23 lung
HT29 colon = system: HT29 colon

Work on `C[C@H]1C[C@@H](n2c(Nc3ccc(OC(F)(F)F)cc3)nc3cc(CCC(=O)O)ccc32)CC(C)(C)C1` yielded a GI50 (SF-268 CNS) of 13 µM, a TGI (SF-268 CNS) of 25.8 µM and a GI50 (U251 glioblastoma) of 9.69 µM. The TGI (U251 glioblastoma) was 22.5 µM, the GI50 (OVCAR-8 ovarian) was 9.58 µM and the TGI (OVCAR-8 ovarian) was 22 µM. It also gave a GI50 (SW-620 colon) of 14.6 µM, a TGI (SW-620 colon) of 27.9 µM and a GI50 (CCRF-CEM leukemia) of 11.9 µM. The TGI (CCRF-CEM leukemia) was 24.3 µM, the GI50 (786-0 renal) was 13.8 µM and the TGI (786-0 renal) was 26.8 µM. The GI50 (UACC-257 melanoma) was 17.8 µM, the TGI (UACC-257 melanoma) was 31.8 µM and the GI50 (SK-MEL-2 melanoma) was 17.9 µM. The TGI (SK-MEL-2 melanoma) was 31.8 µM, the GI50 (BT-549 breast) was 13 µM and the TGI (BT-549 breast) was 25.8 µM. For the same molecule, the GI50 (MOLT-4 leukemia) was 5.49 µM, the TGI (MOLT-4 leukemia) was 17.4 µM and the GI50 (UO-31 renal) was 11.9 µM. For the same molecule, the TGI (UO-31 renal) was 24.4 µM, the GI50 (COLO 205 colon) was 17.5 µM and the TGI (COLO 205 colon) was 31.5 µM. It also gave a GI50 (NCI-H522 lung) of 16.5 µM, a TGI (NCI-H522 lung) of 30.1 µM and a GI50 (SN12C renal) of 15.7 µM. It also gave a TGI (SN12C renal) of 29.2 µM, a GI50 (MDA-MB-435 melanoma) of 14.9 µM and a TGI (MDA-MB-435 melanoma) of 28.3 µM. For the same molecule, the GI50 (HOP-62 NSCLC) was 12.2 µM, the TGI (HOP-62 NSCLC) was 24.7 µM and the GI50 (NCI-H226 lung) was 16.2 µM. The TGI (NCI-H226 lung) was 29.8 µM, the GI50 (PC-3 prostate) was 13.7 µM and the TGI (PC-3 prostate) was 26.8 µM. The GI50 (SNB-19 CNS) was 12.5 µM, the TGI (SNB-19 CNS) was 25.1 µM and the GI50 (HCC-2998 colon) was 14.1 µM. It also gave a TGI (HCC-2998 colon) of 27.1 µM, a GI50 (A498 renal) of 13.3 µM and a TGI (A498 renal) of 26.2 µM. For the same molecule, the GI50 (TK-10 renal) was 16 µM, the TGI (TK-10 renal) was 29.7 µM and the GI50 (MDA-MB-231 breast) was 16.4 µM. For the same molecule, the TGI (MDA-MB-231 breast) was 30 µM, the GI50 (HCT-116 colon) was 12.2 µM and the TGI (HCT-116 colon) was 24.9 µM. It also gave a GI50 (HCT-15 colon) of 13.9 µM, a TGI (HCT-15 colon) of 27.1 µM and a GI50 (SK-MEL-5 melanoma) of 14.2 µM. The TGI (SK-MEL-5 melanoma) was 27.3 µM, the GI50 (T-47D breast) was 13.5 µM and the TGI (T-47D breast) was 27.6 µM. It also gave a GI50 (MALME-3M melanoma) of 18.3 µM, a TGI (MALME-3M melanoma) of 32.4 µM and a GI50 (NCI-H23 lung) of 14.6 µM. For the same molecule, the TGI (NCI-H23 lung) was 27.9 µM, the GI50 (HT29 colon) was 12.7 µM and the TGI (HT29 colon) was 25.6 µM.
